Test results: US8008292B2, “Condensed benzamide compounds and inhibitors of vanilloid receptor subtype 1 (VR1) activity” (Japan Tobacco Inc., priority 2004, dated 2011)
Structures can show the parent of a compound that is named as a salt.

Molecular target: T1, human VR1 (Homo sapiens, UniProt Q8NER1)
T1 construct: expressed in transfected cells
Test: Inhibition of Ca2+ entry in cells caused by proton, in rat glioma (C6BU1) cells stably expressing human VR1 (Fura 2 fluorescence)
Assay type: cell-based
Conditions: inhibition of proton-induced Ca2+ entry
Summary of the method: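 Fura 2-loaded C6BU1 cells in 20 mM MES buffer pH 6.8 with added Ca2+ were preincubated 10 min with compound (final 1 μM to 0.1 nM, 1% DMSO). Proton stimulation brought pH to 5.5. Fluorescence rise was measured, and IC50 was derived from % inhibition versus DMSO control.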

T1 sequence (Q8NER1 whole entry): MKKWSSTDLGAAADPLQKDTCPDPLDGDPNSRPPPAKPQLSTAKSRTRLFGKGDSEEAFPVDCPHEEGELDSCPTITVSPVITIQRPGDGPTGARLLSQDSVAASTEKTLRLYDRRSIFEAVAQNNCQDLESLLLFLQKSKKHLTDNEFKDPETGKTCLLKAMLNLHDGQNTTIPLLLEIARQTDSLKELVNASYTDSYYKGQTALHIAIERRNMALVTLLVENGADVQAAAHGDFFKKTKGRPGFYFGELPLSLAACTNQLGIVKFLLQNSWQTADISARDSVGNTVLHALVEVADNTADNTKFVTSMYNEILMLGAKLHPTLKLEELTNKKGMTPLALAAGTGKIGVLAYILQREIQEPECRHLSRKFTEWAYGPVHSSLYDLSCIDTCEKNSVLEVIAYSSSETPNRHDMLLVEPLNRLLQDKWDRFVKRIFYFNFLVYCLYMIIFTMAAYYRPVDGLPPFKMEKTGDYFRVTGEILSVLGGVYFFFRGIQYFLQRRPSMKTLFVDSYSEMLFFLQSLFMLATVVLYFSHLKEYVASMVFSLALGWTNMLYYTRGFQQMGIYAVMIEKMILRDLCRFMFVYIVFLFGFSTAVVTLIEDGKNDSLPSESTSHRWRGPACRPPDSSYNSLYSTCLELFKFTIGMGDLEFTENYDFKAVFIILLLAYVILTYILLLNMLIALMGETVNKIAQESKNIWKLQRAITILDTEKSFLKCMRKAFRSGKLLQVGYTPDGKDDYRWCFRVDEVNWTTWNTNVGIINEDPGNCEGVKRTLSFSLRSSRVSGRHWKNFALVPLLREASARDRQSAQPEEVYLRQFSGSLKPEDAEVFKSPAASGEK

SMILES	IC50
O=C(Nc1ccc(N2CCOCC2)c(C(F)(F)F)c1)c1cccc2c1OC[C@H](CO)N2c1ncccc1Cl [Example 4-39]	< 100 nM
Cc1ccc(N2c3cccc(C(=O)Nc4ccc(C(F)(F)F)cc4Cl)c3OC[C@@H]2CO)nc1 [Example 4-40]	< 100 nM
Cc1cccnc1N1c2cccc(C(=O)Nc3ccc(OC(F)(F)F)cc3)c2OC[C@@H]1CO [Example 4-41]	< 100 nM
Cc1cccnc1N1c2cccc(C(=O)Nc3ccc(C(F)(F)F)cc3)c2OC[C@@H]1CO [Example 4-42]	< 100 nM
Cc1cccnc1N1c2cccc(C(=O)Nc3ccc(OC(C)(C)C)c(F)c3)c2OC[C@@H]1CO [Example 4-43]	< 100 nM
Cc1cccnc1N1c2cccc(C(=O)Nc3ccc(OCC(C)C)c(F)c3)c2OC[C@@H]1CO [Example 4-44]	< 100 nM
Cc1ccc(N2c3cccc(C(=O)Nc4ccc(OCC(C)C)c(C(F)(F)F)c4)c3OC[C@@H]2CO)nc1 [Example 4-45]	< 100 nM
Cc1ccc(N2c3cccc(C(=O)Nc4ccc(OC(C)C)c(F)c4)c3OC[C@@H]2CO)nc1 [Example 4-46]	< 100 nM
Cc1ccc(N2c3cccc(C(=O)Nc4ccc(N5CCOCC5)c(F)c4)c3OC[C@@H]2CO)nc1 [Example 4-47]	< 100 nM
Cc1ccc(N2c3cccc(C(=O)Nc4ccc(Cl)cc4)c3OC[C@@H]2CO)nc1 [Example 4-48]	< 100 nM
Cc1ccc(N2c3cccc(C(=O)Nc4ccc(OC(C)(C)C)c(F)c4)c3OC[C@@H]2CO)nc1 [Example 4-50]	< 100 nM
Cc1ccc(N2c3cccc(C(=O)Nc4ccc(Br)c(F)c4)c3OC[C@@H]2CO)nc1 [Example 4-51]	< 100 nM
O=C(Nc1ccc(OC(F)(F)F)cc1)c1cccc2c1OCC(CO)N2c1ncccc1Cl (centres unmarked) [Example 4-52]	< 100 nM
O=C(Nc1ccc(C(F)(F)F)c(F)c1)c1cccc2c1OC[C@H](CO)N2c1ncccc1Cl [Example 4-53]	< 100 nM
Cc1ccc(N2c3cccc(C(=O)Nc4ccc(OCC(C)C)c(F)c4)c3OC[C@@H]2CO)nc1 [Example 4-54]	< 100 nM
Cc1ccc(N2c3cccc(C(=O)Nc4ccc(F)c(C(F)(F)F)c4)c3OC[C@@H]2CO)nc1 [Example 4-55]	< 100 nM
CC(O)C1COc2c(C(=O)Nc3ccc(OC(F)(F)F)cc3)cccc2N1c1ncccc1Cl (centres unmarked) [Example 4-56]	< 100 nM
CC(C)(C)c1ccc(NC(=O)c2cccc3c2OCCN3c2cnccn2)cc1 [Example 5-1, N-(4-tert-butylphenyl)-4-(pyrazine-2-yl)-3,4-dihydro-2H-benzo[1,4]oxazine-8-carboxamide]	100 to 1000 nM
CCc1cnc(N2CCOc3c(C(=O)Nc4ccc(Cl)cc4)cccc32)nc1 [Example 5-2, N-(4-chlorophenyl)-4-(5-ethylpyrimidin-2-yl)-3,4-dihydro-2H-benzo[1,4]oxazine-8-carboxamide]	100 to 1000 nM
O=C(Nc1ccc(C(F)(F)F)cc1)c1cccc2c1OCCN2c1ccc(Cl)nn1 [Example 5-4, 4-(6-chloropyridazine-3-yl)-N-(4-trifluoromethylphenyl)-3,4-dihydro-2H-benzo[1,4]oxazine-8-carboxamide]	< 100 nM
Cc1csc(N2CCOc3c(C(=O)Nc4ccc(OC(F)(F)F)cc4)cccc32)n1 [Example 5-5, 4-(4-methylthiazol-2-yl)-N-(4-trifluoromethoxyphenyl)-3,4-dihydro-2H-benzo[1,4]oxazine-8-carboxamide]	100 to 1000 nM
Cc1cnc(N2CCOc3c(C(=O)Nc4ccc(OC(F)(F)F)cc4)cccc32)s1 [Example 5-6, 4-(5-methylthiazol-2-yl)-N-(4-trifluoromethoxyphenyl)-3,4-dihydro-2H-benzo[1,4]oxazine-8-carboxamide]	< 100 nM

The remaining lines, values ahead:

IC50	SMILES
< 100 nM	Cc1cnc(N2c3cccc(C(=O)Nc4ccc(OC(F)(F)F)cc4)c3OC[C@@H]2CO)s1 [Example 6-1, (S)-3-hydroxymethyl-4-(5-methylthiazol-2-yl)-N-(4-trifluoromethoxyphenyl)-3,4-dihydro-2H-benzo[1,4]oxazine-8-carboxamide]
< 100 nM	Cc1cnc(N2c3cccc(C(=O)Nc4ccc(C(F)(F)F)cc4)c3OC[C@@H]2CO)s1 [Example 6-2, (S)-3-hydroxymethyl-4-(5-methylthiazol-2-yl)-N-(4-trifluoromethylphenyl)-3,4-dihydro-2H-benzo[1,4]oxazine-8-carboxamide]
< 100 nM	Cc1cnc(N2c3cccc(C(=O)Nc4ccc(Cl)c(Cl)c4)c3OC[C@@H]2CO)s1 [Example 6-3, (S)-N-(3,4-dichlorophenyl)-3-hydroxymethyl-4-(5-methylthiazol-2-yl)-3,4-dihydro-2H-benzo[1,4]oxazine-8-carboxamide hydrochloride]
< 100 nM	Cc1cnc(N2c3cccc(C(=O)Nc4ccc(OC(C)C)c(F)c4)c3OC[C@@H]2CO)s1 [Example 6-4]
< 100 nM	Cc1cnc(N2c3cccc(C(=O)Nc4ccc(OC(C)(C)C)c(F)c4)c3OC[C@@H]2CO)s1 [Example 6-5]
< 100 nM	Cc1cnc(N2c3cccc(C(=O)Nc4ccc(OCC(C)C)c(F)c4)c3OC[C@@H]2CO)s1 [Example 6-6]
< 100 nM	Cc1cnc(N2c3cccc(C(=O)Nc4ccc(Br)c(F)c4)c3OC[C@@H]2CO)s1 [Example 6-7]
< 100 nM	Cc1cnc(N2c3cccc(C(=O)Nc4ccc(F)c(C(F)(F)F)c4)c3OC[C@@H]2CO)s1 [Example 6-8]
< 100 nM	Cc1cnc(N2c3cccc(C(=O)Nc4ccc(N5CCOCC5)c(F)c4)c3OC[C@@H]2CO)s1 [Example 6-9]
< 100 nM	Cc1cnc(N2c3cccc(C(=O)Nc4ccc(C(F)(F)F)nc4)c3OC[C@@H]2CO)s1 [Example 6-10]
< 100 nM	Cc1cnc(N2c3cccc(C(=O)Nc4ccc(OC(F)(F)F)cc4)c3OC[C@@H]2CO)o1 [Example 6-11, (S)-3-hydroxymethyl-4-(5-methyloxazol-2-yl)-N-(4-trifluoromethoxyphenyl)-3,4-dihydro-2H-benzo[1,4]oxazine-8-carboxamide]
< 100 nM	Cc1cnc(N2c3cccc(C(=O)Nc4ccc(C(F)(F)F)cc4)c3OC[C@@H]2CO)o1 [Example 6-12, (S)-3-hydroxymethyl-4-(5-methyloxazol-2-yl)-N-(4-trifluoromethylphenyl)-3,4-dihydro-2H-benzo[1,4]oxazine-8-carboxamide]
< 100 nM	Cc1nc(N2c3cccc(C(=O)Nc4ccc(OC(F)(F)F)cc4)c3OC[C@@H]2CO)sc1C [Example 6-13, (S)-4-(4,5-dimethylthiazol-2-yl)-3-hydroxymethyl-N-(4-trifluoromethoxyphenyl)-3,4-dihydro-2H-benzo[1,4]oxazine-8-carboxamide]
< 100 nM	Cc1nc(N2c3cccc(C(=O)Nc4ccc(C(F)(F)F)cc4)c3OC[C@@H]2CO)sc1C [Example 6-14, (S)-4-(4,5-dimethylthiazol-2-yl)-3-hydroxymethyl-N-(4-trifluoromethylphenyl)-3,4-dihydro-2H-benzo[1,4]oxazine-8-carboxamide]
< 100 nM	COc1ccc(N2CCOc3c(C(=O)Nc4ccc(C(C)(C)C)cc4)cccc32)cc1 [Example 7-01, N-(4-tert-butylphenyl)-4-(4-methoxyphenyl)-3,4-dihydro-2H-benzo[1,4]oxazine-8-carboxamide]
< 100 nM	COc1ccc(N2CCOc3c(C(=O)Nc4ccc(OCC(C)C)cc4)cccc32)cc1 [Example 7-02, N-(4-isobutyloxyphenyl)-4-(4-methoxyphenyl)-3,4-dihydro-2H-benzo[1,4]oxazine-8-carboxamide]
